The source made the active and inactive calls. The calls are words filed in the database; no cut-off is given here.
Experiments:
L02 [1] = experiment: Hepatoprotective activity against concanavalin A induced liver injury in human HL7702 cells assessed as cell survival rate at 5 uM preincubated for 12 hrs followed by concanavalin A stimulation for 12 hrs by MTT assay (reference value: 51.37%); format: functional; conditions: time 24 hrs, read-out: Survival
Mus musculus [2] = experiment: Hepatoprotective activity against concanavalin A induced C57BL/6 mouse livery injury model assessed as decrease in severity of liver damage at 150 mg/kg, ip once daily for 2 weeks followed by concanavalin A stimulation and measured after 12 hrs by H&E staining based […]; format: functional, organism-based
Mus musculus [3] = experiment: Hepatoprotective activity against concanavalin A induced C57BL/6 mouse livery injury model assessed as decrease in JAK2 phosphorylation level at 150 mg/kg, ip once daily for 2 weeks followed by concanavalin A stimulation and measured after 12 hrs by Western blot analysis; format: functional, organism-based
Mus musculus [4] = experiment: (§1) Hepatoprotective activity against concanavalin A induced C57BL/6 mouse livery injury model assessed as decrease in serum ALT level at 150 mg/kg, ip once daily for 2 weeks followed by concanavalin A stimulation and measured after 12 hrs; format: functional, organism-based
L02 [5] = experiment: Hepatoprotective activity against concanavalin A induced livery injury in human HL7702 assessed as decrease in IL-6 expression level at 5 uM preincubated for 24 hrs followed by concanavalin A stimulation for 12 hrs by ELISA assay; format: functional, cell-based; conditions: time 36.0 hrs
Mus musculus [6] = experiment: Hepatoprotective activity against concanavalin A induced C57BL/6 mouse livery injury model assessed as decrease in Bax level at 150 mg/kg, ip once daily for 2 weeks followed by concanavalin A stimulation and measured after 12 hrs by Western blot analysis; format: functional, organism-based
Mus musculus [7] = experiment: Hepatoprotective activity against concanavalin A induced C57BL/6 mouse livery injury model assessed as decrease in cleaved caspase 3 level at 150 mg/kg, ip once daily for 2 weeks followed by concanavalin A stimulation and measured after 12 hrs by Western blot analysis; format: functional, organism-based
Mus musculus [8] = experiment: as §1, with “cleaved caspase-3” for “serum ALT”, “level in liver” for “level”, “hrs by DAB staining based immunohistological anlaysis” for “hrs”; format: functional, organism-based
Mus musculus [9] = experiment: as §1, with “phosphorylated STAT3” for “serum ALT”, “level in liver” for “level”, “hrs by DAB staining based immunohistological anlaysis” for “hrs”; format: functional, organism-based
Mus musculus [10] = experiment: Hepatoprotective activity against concanavalin A induced C57BL/6 mouse livery injury model assessed as decrease in STAT3 phosphorylation level at 150 mg/kg, ip once daily for 2 weeks followed by concanavalin A stimulation and measured after 12 hrs by Western blot analysis; format: functional, organism-based
Mus musculus [11] = experiment: Hepatoprotective activity against concanavalin A induced C57BL/6 mouse livery injury model assessed as increase in Bcl-2 level at 150 mg/kg, ip once daily for 2 weeks followed by concanavalin A stimulation and measured after 12 hrs by Western blot analysis; format: functional, organism-based
L02 [12] = experiment: Hepatoprotective activity against concanavalin A induced livery injury in human HL7702 assessed as decrease in IL-6 expression level at 5 uM preincubated for 12 hrs followed by concanavalin A stimulation for 12 hrs by Western blot analysis; format: functional, cell-based; conditions: time 24.0 hrs
Mus musculus [13] = experiment: Hepatoprotective activity against concanavalin A induced C57BL/6 mouse livery injury model assessed as decrease in serum AST level at 150 mg/kg, ip once daily for 2 weeks followed by concanavalin A stimulation and measured after 12 hrs; format: functional, organism-based
Mus musculus [14] = experiment: Hepatoprotective activity against concanavalin A induced C57BL/6 mouse livery injury model assessed as decrease in serum IL-6 level at 150 mg/kg, ip once daily for 2 weeks followed by concanavalin A stimulation and measured after 12 hrs by ELISA; format: functional, organism-based
L02 [15] = experiment: Hepatoprotective activity against concanavalin A induced human HL7702 cell apoptosis assessed as decrease in Bax expression level at 5 uM preincubated for 12 hrs followed by concanavalin A stimulation for 12 hrs by Western blot analysis; format: functional, cell-based; conditions: time 24.0 hrs
L02 [16] = experiment: Hepatoprotective activity against concanavalin A induced human HL7702 cell apoptosis assessed as decrease in cleaved caspase-3 level at 5 uM preincubated for 12 hrs followed by concanavalin A stimulation for 12 hrs by Western blot analysis; format: functional, cell-based; conditions: time 24.0 hrs
L02 [17] = experiment: Cytotoxicity against human HL7702 cells ssessed as cell survival rate at 5 uM for 12 hrs by MTT assay; format: toxicity, cell-based; conditions: l02, 12 h
L02 [18] = experiment: Hepatoprotective activity against concanavalin A induced human HL7702 cell apoptosis assessed as increase in Bcl-2 expression level at 5 uM preincubated for 12 hrs followed by concanavalin A stimulation for 12 hrs by Western blot analysis; format: functional, cell-based; conditions: time 24.0 hrs
L02 [19] = experiment: Hepatoprotective activity against concanavalin A induced human HL7702 cell apoptosis assessed as nuclear morphological changes at 5 uM preincubated for 12 hrs followed by concanavalin A stimulation for 12 hrs by Hoechst 33342 staining based fluorescence microscopy; format: functional; conditions: time 24.0 hrs
Mus musculus [20] = experiment: Hepatoprotective activity against concanavalin A induced C57BL/6 mouse livery injury model assessed as decrease in Bax level at 5 mg/kg, ip once daily for 2 weeks followed by concanavalin A stimulation and measured after 12 hrs by Western blot analysis; format: functional, organism-based
L02 [21] = experiment: Hepatoprotective activity against concanavalin A induced livery injury in human HL7702 cells assessed as decrease in JAK2 phosphorylation level at 5 uM preincubated for 12 hrs followed by concanavalin A stimulation for 12 hrs by Western blot analysis; format: functional, cell-based; conditions: time 24.0 hrs
Mus musculus [22] = experiment: Hepatoprotective activity against concanavalin A induced C57BL/6 mouse livery injury model assessed as decrease in JAK2 phosphorylation level at 5 mg/kg, ip once daily for 2 weeks followed by concanavalin A stimulation and measured after 12 hrs by Western blot analysis; format: functional, organism-based
Mus musculus [23] = experiment: Hepatoprotective activity against concanavalin A induced C57BL/6 mouse livery injury model assessed as decrease in STAT3 phosphorylation level at 5 mg/kg, ip once daily for 2 weeks followed by concanavalin A stimulation and measured after 12 hrs by Western blot analysis; format: functional, organism-based
L02 [24] = experiment: Hepatoprotective activity against concanavalin A induced livery injury in human HL7702 cells assessed as increase in HO-1 expression level at 5 uM preincubated for 12 hrs followed by concanavalin A stimulation for 12 hrs by Western blot analysis; format: functional, cell-based; conditions: time 24.0 hrs
Mus musculus [25] = experiment: Hepatoprotective activity against concanavalin A induced C57BL/6 mouse livery injury model assessed as decrease in serum IL-6 level at 5 mg/kg, ip once daily for 2 weeks followed by concanavalin A stimulation and measured after 12 hrs by ELISA; format: functional, organism-based
L02 [26] = experiment: Hepatoprotective activity against concanavalin A induced livery injury in human HL7702 cells assessed as decrease in STAT3 phosphorylation level at 5 uM preincubated for 12 hrs followed by concanavalin A stimulation for 12 hrs by Western blot analysis; format: functional, cell-based; conditions: time 24.0 hrs
Mus musculus [27] = experiment: (§2) Hepatoprotective activity against concanavalin A induced C57BL/6 mouse livery injury model assessed as decrease in cleaved caspase-3 level in liver at 5 mg/kg, ip once daily for 2 weeks followed by concanavalin A stimulation and measured after 12 hrs by DAB staining based immunohistological anlaysis; format: functional, organism-based
Mus musculus [28] = experiment: Hepatoprotective activity against concanavalin A induced C57BL/6 mouse livery injury model assessed as decrease in serum ALT level at 5 mg/kg, ip once daily for 2 weeks followed by concanavalin A stimulation and measured after 12 hrs; format: functional, organism-based
Mus musculus [29] = experiment: as §2, with “phosphorylated STAT3” for “cleaved caspase-3”; format: functional, organism-based
Mus musculus [30] = experiment: Hepatoprotective activity against concanavalin A induced C57BL/6 mouse livery injury model assessed as decrease in cleaved caspase 3 level at 5 mg/kg, ip once daily for 2 weeks followed by concanavalin A stimulation and measured after 12 hrs by Western blot analysis; format: functional, organism-based
Mus musculus [31] = experiment: Hepatoprotective activity against concanavalin A induced C57BL/6 mouse livery injury model assessed as increase in Bcl-2 level at 5 mg/kg, ip once daily for 2 weeks followed by concanavalin A stimulation and measured after 12 hrs by Western blot analysis; format: functional, organism-based
Mus musculus [32] = experiment: Hepatoprotective activity against concanavalin A induced C57BL/6 mouse livery injury model assessed as decrease in severity of liver damage at 5 mg/kg, ip once daily for 2 weeks followed by concanavalin A stimulation and measured after 12 hrs by H&E staining based […]; format: functional, organism-based
Mus musculus [33] = experiment: Hepatoprotective activity against concanavalin A induced C57BL/6 mouse livery injury model assessed as decrease in serum AST level at 5 mg/kg, ip once daily for 2 weeks followed by concanavalin A stimulation and measured after 12 hrs; format: functional, organism-based

Row | SMILES | viability at 5 µM (L02 [1]) [%] | Activity (L02 [15]) | Activity (L02 [16]) | Activity (L02 [17]) | Activity (L02 [18]) | Activity (L02 [19]) | further results
1 | COc1c(Cl)c2c(c(OC)c1OC)-c1c(c(Cl)c(OC)c(OC)c1OC(=O)c1ccc(C(F)(F)F)cc1)CC(C)C(C)C2 (stereo unspecified) | 65.1 | – | – | – | – | – | –
2 | COC(=O)c1ccc(-c2ccc(C(=O)OC)cc2)cc1 [BIPHENYL DIMETHYL DICARBOXYLATE] | 63.9 | – | – | – | – | – | Activity (Mus musculus [2]): Active; Activity (Mus musculus [3]): Active; Activity (Mus musculus [4]): Active; Activity (L02 [5]): Active; Activity (Mus musculus [6]): Active; Activity (Mus musculus [7]): Active; Activity (Mus musculus [8]): Active; Activity (Mus musculus [9]): Active; Activity (Mus musculus [10]): Active; Activity (Mus musculus [11]): Active; Activity (L02 [12]): Active; Activity (Mus musculus [13]): Active; Activity (Mus musculus [14]): Active
3 | COc1c(Cl)c2c(c(OC)c1OC)-c1c(c(Cl)c(OC)c(OC)c1OS(=O)(=O)Cc1ccccc1)CC(C)C(C)C2 (stereo unspecified) | 71.4 | – | – | – | – | – | –
4 | COc1cc2c(c(OC)c1OC)-c1c(O)c(OC)c(OC)c(N)c1CC(C)C(C)C2 (stereo unspecified) | 97.1 | Active | Active | Non-Toxic | Active | Active | –
5 | COc1c(Cl)c2c(c(OC)c1OC)-c1c(c(Cl)c(OC)c(OC)c1OCCCOC(=O)C(CCSC)NC(=O)OC(C)(C)C)CC(C)C(C)C2 (stereo unspecified) | 90.8 | Active | Active | Non-Toxic | Active | Active | –
6 | COc1cc2c(c(OC)c1OC)-c1c(c([N+](=O)[O-])c(OC)c(OC)c1OC(=O)/C=C/c1ccccc1)CC(C)C(C)C2 (stereo unspecified) | 97.4 | Active | Active | Non-Toxic | Active | Active | –
7 | COc1cc2c(c(OC)c1OC)-c1c(c(Cl)c(OC)c(OC)c1OC(=O)CCl)CC(C)C(C)C2 (stereo unspecified) | 68.4 | – | – | – | – | – | –
8 | COc1ccc(C(=O)Oc2c(OC)c(OC)c(Cl)c3c2-c2c(cc(OC)c(OC)c2OC)CC(C)C(C)C3)cc1 (stereo unspecified) | 70 | – | – | – | – | – | –
9 | COc1cc2c(c(OC)c1OC)-c1c(c(N)c(OC)c(OC)c1OS(=O)(=O)c1ccc(C)cc1)CC(C)C(C)C2 (stereo unspecified) | 89 | Active | Active | Non-Toxic | Active | Active | –
10 | COc1cc2c(c(OC)c1OC)-c1c(c(Cl)c(OC)c(OC)c1OC(=O)/C=C/c1ccccc1)CC(C)C(C)C2 (stereo unspecified) | 110 | Active | Active | Non-Toxic | Active | Active | Activity (Mus musculus [20]): Active; Activity (L02 [21]): Active; Activity (Mus musculus [22]): Active; Activity (Mus musculus [23]): Active; Activity (L02 [24]): Active; Activity (L02 [5]): Active; Activity (Mus musculus [25]): Active; Activity (L02 [26]): Active; Activity (Mus musculus [27]): Active; Activity (Mus musculus [28]): Active; Activity (Mus musculus [29]): Active; Activity (Mus musculus [30]): Active; Activity (L02 [12]): Active; Activity (Mus musculus [31]): Active; Activity (Mus musculus [32]): Active; Activity (Mus musculus [33]): Active
11 | COc1c(Cl)c2c(c(OC)c1OC)-c1c(c(Cl)c(OC)c(OC)c1OC(=O)c1cccnc1)CC(C)C(C)C2 (stereo unspecified) | 79.4 | – | – | – | – | – | –
12 | COc1c(Cl)c2c(c(OC)c1OC)-c1c(c(Cl)c(OC)c(OC)c1OC(=O)c1cccs1)CC(C)C(C)C2 (stereo unspecified) | 80.4 | – | – | – | – | – | –
